Source: patent US6056958A, “Method of treatment of arterial and venous thromboembolic disorders” (Dupont Pharmaceuticals, priority 1997, dated 2000)
Non-standard residues stand in square brackets, D forms with d. Residues, ends and D or L forms follow the SMILES beside them. 3Amb = NCc1cccc(C(=O)O)c1

Tests used:
GPIIb/IIIa receptor = molecular target: T1, GPIIb/IIIa receptor (Homo sapiens, UniProt P05106+P08514); assay: GPIIb/IIIa Receptor-Biotinylated Fibrinogen Binding Assay; settings: inhibition of fibrinogen binding to purified GPIIb/IIIa
T1 construct: The GPIIb/IIIa receptor was purified from human platelets; from tissue; host or cells: human platelets (purified according to D'Souza et al., J. Biol. Chem. 1990, 265:3440-3446)
Excerpt: (§1) Compounds may be tested for their ability to block binding of vitronectin to the αv /β3 receptor and to block the binding of fibrinogen to GPIIb/IIIa receptor in the αv /β3 -Biotinylated Vitronectin Binding Assay and GPIIb/IIIa Receptor-Biotinylated Fibrinogen Binding Assay described below.
GPIIb/IIIa Receptor-Biotinylated Fibrinogen Binding Assay
The GPIIb/IIIa receptor was purified from human platelets according to D'Souza et al. (J. Biol. Chem., 1990, 265:3440-3446). The purified GPIIb/IIIa protein was coated on 96 well plates and the competition between test compound and biotinylated fibrinogen for binding to the plate-immobilized GPIIb/IIIa receptor was determined by ELISA as described below. Bound fibrinogen was detected using an avidin-alkaline phosphatase conjugate and paranitrophenol detection at […]. For IC50 determination, test agent was added at various concentrations to plates coated with purified GPIIb/IIIa protein which was followed by the addition of biotinylated fibrinogen. The inhibitory binding constant (Ki) of test agents were calculated under this assay system using standard Michaelis-Menten analysis. The IC50 is the concentration of test substance needed to block 50% of the fibrinogen binding to the GPIIb/IIIa receptor.
The following reagents may be used in the GPIIb/IIIa-fibrinogen binding ELISA:
purified GPIIb/IIIa (148.8 μg/mL);
biotinylated fibrinogen (~1 mg/mL or 3000 nM);
anti-biotin alkaline phosphatase conjugate (Sigma no. A7418);
flat-bottom, high binding, 96-well plates (Costar Cat. no. 3590);
phosphatase substrate (Sigma 104) (40 mg capsules);
bovine serum albumin (BSA) (Sigma no. A3294);
Alkaline Phosphatase buffer--0.1 M glycine-HCl, 1 mM MgCl2.6H2 O, 1 mM ZnCl2, pH 10.4;
Binding buffer--20 mM Tris-HCl, 150 mM NaCl, 1 mM CaCl2.2H2 O, 0.02% NaN3, pH 7.0;
Buffer A--50 mM Tris-HCl, 100 mM NaCl, 2 mM CaCl2.2H2 O, 0.02% NaN3, pH 7.4;
Buffer A+3.5% BSA (Blocking buffer);
Buffer A+0.1% BSA (Dilution buffer);
The following method steps are used in the GPIIb/IIIa-fibrinogen binding ELISA:
Coat plates with GPIIb/IIIa in Binding buffer (125 ng/100 μL/well) overnight at 4° C. (Leave first column uncoated for non-specific binding). Cover and freeze plates at -70° C. until used. Thaw plate 1 hour at room temperature or overnight at 4° C. Discard coating solution and wash once with 200 μL Binding buffer per well. Block plate 2 hours at room temperature on shaker with 200 μl Buffer A+3.5% BSA (Blocking buffer) per well. Discard Blocking buffer and wash once with 200 μL Buffer A+0.1% BSA (Dilution buffer) per well. Pipet 11 μL of test compound (10× the concentration to be tested in Dilution buffer) into duplicate wells. […] Read plate at 405 nm. Blank against non-specific binding (NSB) well. % Inhibition is calculated as 100-(Test Compound Abs/Total Abs)×100.

αv /β3 receptor = molecular target: T2, αv /β3 receptor (Homo sapiens, UniProt P05106+P06756); assay: αv/β3-Biotinylated Vitronectin Binding Assay; settings: for IC50: inhibition of vitronectin binding to purified αv/β3; for Relative Binding Affinity for αv /β3 Relative to GPIIb/IIIa: ratio of IC50 values (GPIIb/IIIa over αv/β3)
T2 construct: The αv /β3 receptor was isolated from human placental extracts prepared using octylglucoside; from tissue
Excerpt: as §1
αv /β3 -Biotinylated Vitronectin Binding Assay
The αv /β3 receptor was isolated from human placental extracts prepared using octylglucoside. The extract was passed over an anti-αv /β3 monoclonal antibody (LM609) affinity column (prepared using LM609 and Affigel 10). The column was subsequently washed extensively at pH 7 and pH 4.5 followed by elution at pH 3. The resulting sample was concentrated by wheat germ agglutinin chromatography to provide a αv /β3 -containing sample which gave two bands on SDS-PAGE which were confirmed as αv /β3 by western blotting.
The affinity purified αv /β3 protein as described above was diluted at different levels and plated to 96 well plates (about 15 ng of αv /β3 protein per well). ELISA detection of αv /β3 -bound biotinylated vitronectin was performed as described below using fixed concentration of biotinylated vitronectin (approximately 80 nM/well). This αv /β3 receptor preparation contains the αv /β3 with no detectable levels of αv /β5 according to the gel and according to effects of blocking antibodies for the αv /β3 or αv /β5 in the ELISA.
A submaximal concentration of biotinylated vitronectin was selected based on concentration response curves with fixed αv /β3 receptor concentration and variable concentrations of biotinylated vitronectin.
The purified αv /β3 receptor is diluted with coating buffer (20 mM Tris HCl, 150 mM NaCl, 2.0 mM CaCl2, 1.0 mM MgCl2.6H2 O, 1.0 mM MnCl2.4H2 O) and coated (100 μL/well) on Costar (3590) high capacity 96-well plates overnight at 4° C. The coating solution is discarded and the plates washed once with blocking/binding buffer (B/B buffer: 50 mM Tris HCl, 100 mM NaCl, 2.0 mM CaCl2, 1.0 mM MgCl2.6H2 O, 1.0 mM MnCl2.4H2 O). The plate-immobilized αv /β3 receptor is then blocked (200 μl/well) with 3.5% BSA in B/B buffer for 2 hours at room temperature. After washing once with 1.0% BSA in B/B buffer, biotinylated vitronectin (100 μL) and either test compound (inhibitor) (11 μL) or B/B buffer w/1.0% BSA (11 μL) is added to each well. The plates are incubated 2 hours at room temperature. The plates are washed twice with B/B buffer and incubated 1 hour at room temperature with anti-biotin alkaline phosphatase (100 μL/well) in B/B buffer containing 1.0% BSA. The plates are washed twice with B/B buffer and alkaline phosphatase substrate (100 μL) is added. Color is developed at room temperature. Color development is stopped by addition of 2N NaOH (25 μL/well) and absorbance is read at 405 nm.
The inhibitory binding constant (Ki) of test agents 30 may be calculated under this assay system using Michaelis-Menten analysis. The IC50 is the concentration of test substance needed to block 50% of the vitronectin binding to the αv /β3 receptor. The IC50 for the inhibition of binding of vitronectin to the αv /β3 receptor was determined based on time averaged values for the inhibition of vitronectin binding. Thus, the inhibition of vitronectin binding for each concentration of test compound was measured every 30 seconds over a 2 hour period and the average value of inhibition of vitronectin binding over such 2 hour period was used for the determination of the IC50.

Platelet Aggregation = Platelet Aggregation Assay (in vitro, ADP-induced, platelet-rich plasma); format: cell-based, mongrel dogs or human
Protocol: Platelet Aggregation Assay
Venous blood was obtained from anesthetized mongrel dogs or from healthy human donors who were drug-free and aspirin-free for at least two weeks prior to blood collection. Blood was collected into citrated Vacutainer tubes. The blood was centrifuged for 15 minutes at 150× g (850 RPM in a Sorvall RT6000 Tabletop Centrifuge with H-1000 B rotor) at room temperature, and platelet-rich plasma (PRP) was removed. The remaining blood was centrifuged for 15 minutes at 1500× g ([…]) at room temperature, and platelet-poor plasma (PPP) was removed. Samples were assayed on an aggregometer (PAP-4 Platelet Aggregation Profiler), using PPP as the blank (100% transmittance). 200 μL of PRP (5×10^8 platelets/mL) were added to each micro test tube, and transmittance was set to 0%. 20 μl of ADP (10 μM) was added to each tube, and the aggregation profiles were plotted (% transmittance versus time). Test agent (20 μL) was added at different concentrations prior to the addition of the platelet agonist. Results are expressed as % inhibition of agonist-induced platelet aggregation.

[1] = test system: canine thrombosis model (carotid artery); assay: Carotid artery reocclusion in canine thrombosis model with tPA; format: in vivo; settings: dog carotid
Protocol: Compounds useful in the method of the present invention are useful for the prevention of reocclusion as an adjunct to fibrinolytic therapy, as shown in the animal model tests described below. The effect of compound A in combination with tPA on the incidence of carotid artery reocclusion in dogs was assessed using a protocol as described by Mousa et al., Circulation 1994, 89:3-12.

[2] = tPA 0.5 mg locally, 1.5 mg IV bolus, compound A 0.1 mg/kg IV bolus + 0.4 mg/kg IV infusion 3 hr, mean ± SD

T2 sequence (P06756 31-889 limits assumed): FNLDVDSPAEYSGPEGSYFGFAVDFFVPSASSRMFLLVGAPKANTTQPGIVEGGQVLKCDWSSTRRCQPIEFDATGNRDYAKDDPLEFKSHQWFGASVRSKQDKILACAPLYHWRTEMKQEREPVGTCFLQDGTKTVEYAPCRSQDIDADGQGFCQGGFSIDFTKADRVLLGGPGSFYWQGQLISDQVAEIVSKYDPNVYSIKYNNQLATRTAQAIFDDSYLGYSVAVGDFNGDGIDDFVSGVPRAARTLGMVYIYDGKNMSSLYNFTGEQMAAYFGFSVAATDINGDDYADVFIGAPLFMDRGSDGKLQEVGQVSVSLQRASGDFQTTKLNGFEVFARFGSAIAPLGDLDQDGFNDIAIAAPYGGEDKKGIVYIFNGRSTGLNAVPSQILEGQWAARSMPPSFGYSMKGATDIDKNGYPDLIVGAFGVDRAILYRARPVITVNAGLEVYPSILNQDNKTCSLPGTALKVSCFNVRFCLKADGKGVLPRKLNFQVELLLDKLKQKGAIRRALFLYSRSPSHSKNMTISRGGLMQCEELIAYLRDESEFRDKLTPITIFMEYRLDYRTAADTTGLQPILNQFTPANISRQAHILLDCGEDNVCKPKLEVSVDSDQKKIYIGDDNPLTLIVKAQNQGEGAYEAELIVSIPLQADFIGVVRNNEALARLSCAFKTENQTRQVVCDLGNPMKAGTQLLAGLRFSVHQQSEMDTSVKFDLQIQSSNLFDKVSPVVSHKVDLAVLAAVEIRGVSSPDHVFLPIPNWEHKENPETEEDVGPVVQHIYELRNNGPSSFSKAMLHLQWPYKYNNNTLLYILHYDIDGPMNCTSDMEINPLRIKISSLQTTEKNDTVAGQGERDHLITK
T2 sequence (P06756 891-1048 partner limits assumed): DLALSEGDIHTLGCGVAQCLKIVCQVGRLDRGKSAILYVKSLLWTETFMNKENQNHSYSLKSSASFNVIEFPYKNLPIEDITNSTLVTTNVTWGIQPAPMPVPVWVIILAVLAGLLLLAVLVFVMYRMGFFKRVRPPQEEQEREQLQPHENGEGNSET
T2 sequence (P05106 27-788): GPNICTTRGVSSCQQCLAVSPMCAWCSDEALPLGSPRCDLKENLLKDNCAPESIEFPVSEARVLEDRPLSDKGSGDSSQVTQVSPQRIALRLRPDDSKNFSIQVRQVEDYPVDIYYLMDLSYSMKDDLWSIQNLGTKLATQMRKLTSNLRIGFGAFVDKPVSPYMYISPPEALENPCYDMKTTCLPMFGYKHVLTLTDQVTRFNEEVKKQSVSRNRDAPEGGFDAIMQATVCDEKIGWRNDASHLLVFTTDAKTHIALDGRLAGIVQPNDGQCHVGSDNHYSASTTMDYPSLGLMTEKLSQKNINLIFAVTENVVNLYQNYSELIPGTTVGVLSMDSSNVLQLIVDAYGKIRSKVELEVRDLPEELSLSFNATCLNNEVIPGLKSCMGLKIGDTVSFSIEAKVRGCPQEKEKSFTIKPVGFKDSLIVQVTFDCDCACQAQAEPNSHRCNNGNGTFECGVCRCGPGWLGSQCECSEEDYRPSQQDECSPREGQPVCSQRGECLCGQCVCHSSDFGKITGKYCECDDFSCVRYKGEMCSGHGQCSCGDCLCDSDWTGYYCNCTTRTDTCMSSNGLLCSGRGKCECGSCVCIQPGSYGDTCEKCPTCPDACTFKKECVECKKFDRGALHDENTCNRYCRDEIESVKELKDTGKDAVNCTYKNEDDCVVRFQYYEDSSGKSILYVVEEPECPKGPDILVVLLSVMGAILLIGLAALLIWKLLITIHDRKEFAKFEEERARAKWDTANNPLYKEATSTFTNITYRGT
T1 sequence (P08514 32-887 limits assumed): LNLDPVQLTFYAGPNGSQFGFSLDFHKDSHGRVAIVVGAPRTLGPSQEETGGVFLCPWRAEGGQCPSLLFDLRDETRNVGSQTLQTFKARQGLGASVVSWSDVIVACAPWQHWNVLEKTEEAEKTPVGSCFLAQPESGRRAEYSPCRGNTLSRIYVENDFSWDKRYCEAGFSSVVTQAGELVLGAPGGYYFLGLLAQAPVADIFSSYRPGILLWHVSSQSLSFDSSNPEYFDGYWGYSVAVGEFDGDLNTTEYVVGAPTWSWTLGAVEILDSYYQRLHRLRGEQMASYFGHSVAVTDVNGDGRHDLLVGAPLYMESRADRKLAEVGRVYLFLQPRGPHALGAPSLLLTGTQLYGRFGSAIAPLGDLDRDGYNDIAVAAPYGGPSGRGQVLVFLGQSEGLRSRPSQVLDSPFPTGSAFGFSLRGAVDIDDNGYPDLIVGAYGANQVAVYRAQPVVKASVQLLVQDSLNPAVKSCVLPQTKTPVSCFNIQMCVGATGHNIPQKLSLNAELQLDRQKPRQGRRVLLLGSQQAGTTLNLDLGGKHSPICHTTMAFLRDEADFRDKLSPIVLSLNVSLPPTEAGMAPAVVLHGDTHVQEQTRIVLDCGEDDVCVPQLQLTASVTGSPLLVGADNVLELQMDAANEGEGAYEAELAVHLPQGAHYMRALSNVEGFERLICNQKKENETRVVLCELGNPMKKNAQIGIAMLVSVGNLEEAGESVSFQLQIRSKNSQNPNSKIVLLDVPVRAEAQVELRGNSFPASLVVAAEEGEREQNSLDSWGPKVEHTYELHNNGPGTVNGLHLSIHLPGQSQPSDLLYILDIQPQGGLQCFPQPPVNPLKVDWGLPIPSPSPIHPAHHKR
T1 sequence (P08514 891-1039 partner limits assumed): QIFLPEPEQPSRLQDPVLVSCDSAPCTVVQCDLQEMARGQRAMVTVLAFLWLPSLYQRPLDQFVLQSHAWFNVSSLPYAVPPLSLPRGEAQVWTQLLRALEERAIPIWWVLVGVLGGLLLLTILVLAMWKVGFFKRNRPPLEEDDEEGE
T1 sequence (P05106 27-788): as the sequence (P05106 27-788) above

Row | Compound | IC50 (GPIIb/IIIa receptor) | IC50 (αv /β3 receptor) | Relative Binding Affinity for αv /β3 Relative to GPIIb/IIIa (αv /β3 receptor) | IC50 (Platelet Aggregation) | Blood Flow, Basal ([1]; basal, tPA with or without compound A, mean ± SD) | Blood Flow, End ([1]; end, tPA with or without compound A) | Blood Flow, Reperfusion ([1]; reperfusion, tPA with or without compound A, mean ± SD) | Thrombus Weight (wet, mg) [1, 2] | Time to Occlusion [1, 2] | Time to Reocclusion [1, 2] | Time to Reperfusion [1, 2]
1 | N=C(N)NCCC[C@@H]1NC(=O)[C@H](CCCCN)NC(=O)c2cccc(c2)CNC(=O)[C@H](CC(=O)O)NC(=O)CNC1=O [Compound D, cyclo-(Lys-Arg-Gly-Asp-Mamb)] (cyclo(RGD[3Amb]K)) | 359 nM | 1.9 nM | 189 | 23 µM | – | – | – | – | – | – | –
2 | CC(C)C[C@@H]1NC(=O)c2cccc(c2)CNC(=O)[C@H](CC(=O)O)NC(=O)CNC(=O)[C@H](CCCNC(=N)N)NC1=O [Compound E, cyclo-(Leu-Arg-Gly-Asp-Mamb)] (cyclo(RGD[3Amb]L)) | 430 nM | 1.4 nM | 307 | 41 µM | – | – | – | – | – | – | –
3 | tPA: tissue plasminogen activator, thrombolytic agent | – | – | – | – | 30 ± 2.5 cm/s | 0 cm/s | 24.2 ± 8 cm/s | 36.2 ± 19.4 mg | 80 ± 25 min | 23 ± 10 min | 15 ± 10 min
